The values below come from patent publication US20240307374A1, “FORMULATION OF FURIN INHIBITOR FOR INHALATION” (BP ASSET V, INC., priority 2021, published 2024).

Type in all cases: physicochemical
Data set [1] can be described thus: Approximate solubility at RT. On the procedure:
Four freeform isolation experiments were performed in different solvent with different acids. Solids were obtained in DCM/HCl and CHCl3/HCl system.
Approximately 2 mg solids were added into a 3-mL glass vial. Solvents in the following table were then added stepwise (50-50-200-700[…] for each step) into the vials and stirred until the solids were dissolved or a total volume of 1 mL was reached. The solubility results were used to guide the solvent selection in polymorph formation.

Data set [2] can be described thus: Equilibrium solubility of freeform Type D in pH=4.0 and 5.0 citrate/phosphate buffers. The settings on record: for Form: XRPD of precipitate; for Form / solubility at 24 h / End pH (24 hours): citrate/phosphate buffer; for Form / solubility at 24 h / solid form after equilibrium (XRPD): 24 hours; for solubility at 24 h: aqueous buffer, thermodynamic from solid; for solid form after equilibrium (XRPD): RT. On the procedure:
The suspension was equilibrated via stirring (1000 rpm) for 24 hours. The suspension was centrifuged to obtain precipitate and supernatants. Solubility and pH were tested for the supernatants after filtration, and isolated precipitate was tested by XRPD.

Data set [3] is described as follows: Complexation stability constant test: solubility in SBECD solutions. The settings on record: for solubility at 24 h: thermodynamic from solid. On the procedure: Additional solid was added into the sample to generate suspension if clear solution was obtained. The suspension was equilibrated via stirring (1000 rpm) for 24 hours. The suspension was centrifuged to obtain precipitate and supernatants. Solubility and pH was determined for the supernatants after filtration, and XRPD was obtained for the isolated precipitate.

Data set [4] is described as follows: Formulation development with NaCl. To be noted: ~35 mg freeform Type D + ~9.6 mg citric acid + ~6.1 mg NaCl in water. On the procedure: The concentration of freeform in the suspension was 0.60 mg/mL (pH 3.8). […] The experiment was redone, and a clear solution (a little cloudy) was obtained immediately after adding 1 mL water into ˜32 mg/mL API+9.6 mg/mL critic acid, solid precipitated out after addition of NaCl.

Values after ≈ are worked out from the molar mass of the structure shown. Where two headings read alike, the source gives them in different places.

For orientation: solubility means how much of the substance goes into solution per volume. As to `CC(=O)NCC1CCN(Cc2cc(Oc3ccc(N4CCN(CCC(=O)O)CC4)nc3)nc(-c3cc(Cl)cc(Cl)c3)c2)CC1` [Freeform Type A], the solubility is less than 1900 µg/mL in data set [1] (1,4-dioxane, organic solvent or mixture, thermodynamic from solid, 1,4-Dioxane, RT, read-out: Solubility); less than 1700 µg/mL in data set [1] (2-MeTHF, organic solvent or mixture, thermodynamic from solid, 2-MeTHF, RT, read-out: Solubility); less than 1900 µg/mL in data set [1] (ACN, organic solvent or mixture, thermodynamic from solid, ACN, RT, read-out: Solubility); less than 2000 µg/mL in data set [1] (Anisole, organic solvent or mixture, thermodynamic from solid, Anisole, RT, read-out: Solubility); “S < 1.2 mg/mL” in data set [1] (CHCl3, RT, solvent for freeform isolation); less than 2100 µg/mL in data set [1] (CHCl3, organic solvent or mixture, thermodynamic from solid, CHCl3, RT, read-out: Solubility). The solubility was less than 2000 µg/mL in data set [1] (CPME, organic solvent or mixture, thermodynamic from solid, CPME, RT, read-out: Solubility); less than 1800 µg/mL in data set [1] (DCM, organic solvent or mixture, thermodynamic from solid, DCM, RT, read-out: Solubility); 17000 to 34000 µg/mL (≈ 26.5 to 53 mM) in data set [1] (DMSO, organic solvent or mixture, thermodynamic from solid, DMSO, RT, read-out: Solubility); less than 2000 µg/mL in data set [1] (EtOAc, organic solvent or mixture, thermodynamic from solid, EtOAc, RT, read-out: Solubility); 7300 to 22000 µg/mL (≈ 11.4 to 34.3 mM) in data set [1] (EtOH, organic solvent or mixture, thermodynamic from solid, EtOH, RT, read-out: Solubility); 1500 to 1800 µg/mL (≈ 2.34 to 2.81 mM) in data set [1] (IPA, organic solvent or mixture, thermodynamic from solid, IPA, RT, read-out: Solubility). Moreover, the solubility is less than 1900 µg/mL in data set [1] (IPAc, organic solvent or mixture, thermodynamic from solid, IPAc, RT, read-out: Solubility); less than 2100 µg/mL in data set [1] (MIBK, organic solvent or mixture, thermodynamic from solid, MIBK, RT, read-out: Solubility); less than 1900 µg/mL in data set [1] (MTBE, organic solvent or mixture, thermodynamic from solid, MTBE, RT, read-out: Solubility); more than 40000 µg/mL in data set [1] (MeOH, organic solvent or mixture, thermodynamic from solid, MeOH, RT, read-out: Solubility); 4000 to 8000 µg/mL (≈ 6.23 to 12.5 mM) in data set [1] (THF, organic solvent or mixture, thermodynamic from solid, THF, RT, read-out: Solubility); less than 2100 µg/mL in data set [1] (Toluene, organic solvent or mixture, thermodynamic from solid, Toluene, RT, read-out: Solubility). Further, the solubility was less than 1900 µg/mL in data set [1] (acetone, organic solvent or mixture, thermodynamic from solid, Acetone, RT, read-out: Solubility); less than 2200 µg/mL in data set [1] (n-Heptane, organic solvent or mixture, thermodynamic from solid, n-Heptane, RT, read-out: Solubility); less than 2000 µg/mL in data set [1] (water, thermodynamic from solid, H2O, RT, read-out: Solubility).
In the case of `CC(=O)NCC1CCN(Cc2cc(Oc3ccc(N4CCN(CCC(=O)O)CC4)nc3)nc(-c3cc(Cl)cc(Cl)c3)c2)CC1` [Freeform Type D], the Form result is “Low crystallinity*” in data set [2] (initial pH 4.0, RT) and “Freeform Type D” in data set [2] (initial pH 5.0, RT). For the same molecule, the solubility at 24 h is 30600 µg/mL (≈ 47.7 mM) in data set [2] (initial pH 4.0, RT); 1290 µg/mL (≈ 2.01 mM) in data set [2] (initial pH 5.0, RT); 2610 µg/mL in data set [3] (5% (w/w) SBECD solution, aqueous with cosolvent or surfactant or cyclodextrin, 5% (w/w) SBECD, RT, 24 hours, final pH 7.8, read-out: Solubility); 4.07 mM in data set [3] (5% (w/w) SBECD solution, pH 7.8, aqueous with cosolvent or surfactant or cyclodextrin, 5% SBECD (54.23 mmol/L), read-out: API Solubility); 6470 µg/mL in data set [3] (10% (w/w) SBECD solution, aqueous with cosolvent or surfactant or cyclodextrin, 10% (w/w) SBECD, RT, 24 hours, final pH 7.9, read-out: Solubility); 10.1 mM in data set [3] (10% (w/w) SBECD solution, pH 7.9, aqueous with cosolvent or surfactant or cyclodextrin, 10% SBECD (108.46 mmol/L), read-out: API Solubility). Moreover, the solubility at 24 h in data set [3] (15% (w/w) SBECD solution, aqueous with cosolvent or surfactant or cyclodextrin, 15% (w/w) SBECD, RT, 24 hours, final pH 7.9, read-out: Solubility) is 8810 µg/mL; in data set [3] (15% (w/w) SBECD solution, pH 7.9, aqueous with cosolvent or surfactant or cyclodextrin, 15% SBECD (162.70 mmol/L), read-out: API Solubility), 13.7 mM; in data set [3] (20% (w/w) SBECD solution, aqueous with cosolvent or surfactant or cyclodextrin, 20% (w/w) SBECD, RT, 24 hours, final pH 7.9, read-out: Solubility) it was 9350 µg/mL; in data set [3] (20% (w/w) SBECD solution, pH 7.9, aqueous with cosolvent or surfactant or cyclodextrin, 20% SBECD (216.93 mmol/L), read-out: API Solubility), 14.6 mM; in data set [3] (25% (w/w) SBECD solution, aqueous with cosolvent or surfactant or cyclodextrin, 25% (w/w) SBECD, RT, 24 hours, final pH 7.9, read-out: Solubility) it was 11000 µg/mL; in data set [3] (25% (w/w) SBECD solution, pH 7.9, aqueous with cosolvent or surfactant or cyclodextrin, 25% SBECD (271.16 mmol/L), read-out: API Solubility), 17.1 mM. The “End pH (24 hours)” value in data set [2] (initial pH 4.0, RT) was found to be 5.2; in data set [2] (initial pH 5.0, RT) it was 5.2. The “solid form after equilibrium (XRPD)” value was “Low crystallinity sample” in data set [2] (pH=4.0 citrate/phosphate) and “no form change” in data set [2] (pH=5.0 citrate/phosphate). Moreover, the “form change during solubility evaluation (XRPD)” value in data set [3] (SBECD solutions, 24 hours) is on record as “No form change”. Further, the “complexation stability constant K^1:1” value in data set [3] (SBECD, Higuchi-Connors phase-solubility method) was 3831 M⁻¹. The pH in data set [4] (24 hours) is on record as 3.8. Also, the “concentration of freeform in the suspension” value in data set [4] (24 hours stirring) was 600 µg/mL.
